Source: US7612089B2, “Tetrahydroisoquinolines as factor Xa inhibitors” (Portola Pharmaceuticals, Inc., priority 2004, dated 2009)

Target: T1, human plasma protein factor Xa (Homo sapiens, UniProt P00742)
T1 construct: The human plasma protein factor Xa was purchased; purchased Haematologic Technologies (Essex Junction, Vt.); host or cells: human plasma
Test: Factor Xa IC50 determination (cleavage of paranitroanilide substrate S-2765)
Format: biochemical
Details: fXa 1 nM, S2765 100 μM, Tris buffered saline pH 7.4, room temperature
Source text: This example illustrates methods for evaluating the compounds of the invention, along with results obtained for such assays. The in vitro and in vivo Factor Xa isoform activities of the inventive compounds can be determined by various procedures known in the art, such as a test for their ability to inhibit the activity of the Factor Xa isoform. […] The IC50 value is the concentration (in nM) of the compound required to provide 50% inhibition of Factor Xa isoform.
An in vitro assay for detecting and measuring inhibition activity against Factor Xa is as follows:
IC50 and Ki Determinations:
The substrate S-2765 (Z-D-Arg-Gly-Arg-pNA.HCl) was obtained from Diapharma (West Chester, Ohio).
The human plasma protein factor Xa was purchased from Haematologic Technologies (Essex Junction, Vt.).
All assays, which are performed in 96-well microtiter plates, measure proteolytic activity of the enzyme (factor Xa) by following cleavage of paranitroanilide substrate. The assay buffer used for proteolytic assays was Tris buffered saline (20 mM Tris, 150 mM NaCl, 5 mM CaCl2, 0.1% Bovine serum albumin (BSA), 5% Dimethly Sulfoxide (DMSO) pH 7.4). In a 96-well microtiter plate, inhibitor was serially diluted to give a range of concentrations from 0.01 nM to 10 μM (final). Duplicate sets of wells were assayed and control wells without inhibitor were included. Enzyme was added to each well, (fXa concentration=1 nM), the plate was shaken for 5 seconds and then incubated for 5 minutes at room temperature. S2765 was added (100 μM final) and the plate was shaken for 5 seconds (final liquid volume in each well was 200 μl). The degree of substrate hydrolysis was measured at 405 nm on a Thermomax plate reader (Molecular Devices, Sunnyvale, Calif.) for 2 minutes. The initial velocities (mOD/min), for each range of inhibitor concentrations, were fitted to a four parameter equation using Softmax data analysis software. The parameter C, derived from the resulting curve-fit, corresponded to the concentration for half maximal inhibition (IC50).

T1 sequence (P00742 235-488 limits assumed): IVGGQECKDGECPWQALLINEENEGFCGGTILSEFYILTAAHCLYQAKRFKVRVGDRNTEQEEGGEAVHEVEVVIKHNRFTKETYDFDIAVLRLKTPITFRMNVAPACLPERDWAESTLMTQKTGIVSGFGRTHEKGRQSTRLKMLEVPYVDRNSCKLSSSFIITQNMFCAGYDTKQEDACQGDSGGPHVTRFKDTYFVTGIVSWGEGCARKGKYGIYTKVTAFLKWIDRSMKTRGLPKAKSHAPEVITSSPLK
T1 sequence (P00742 41-179 partner limits assumed): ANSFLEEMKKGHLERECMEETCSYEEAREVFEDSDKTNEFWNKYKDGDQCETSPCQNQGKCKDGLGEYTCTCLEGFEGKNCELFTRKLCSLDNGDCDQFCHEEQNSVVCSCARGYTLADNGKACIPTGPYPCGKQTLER

Structure (SMILES) | IC50
CN1CCN=C1c1ccc(NC(=O)[C@H]2Cc3ccccc3CN2C(=O)Nc2ccc(Cl)cc2)cc1 [3(R), (3R)-N-[4-(1-methyl-4,5-dihydro-1H-imidazol-2-yl)phenyl]-2N-(4-chlorophenylaminocarbonyl)-1,2,3,4-tetrahydroisoquinoline-3-carboxamide] | ≤ 100 nM
CN1CCN=C1c1ccc(NC(=O)[C@@H]2Cc3ccccc3CN2C(=O)Nc2ccc(Cl)cc2)cc1 [3(S), (3S)-N-[4-(1-methyl-4,5-dihydro-1H-imidazol-2-yl)phenyl]-2N-(4-chlorophenylaminocarbonyl)-1,2,3,4-tetrahydroisoquinoline-3-carboxamide] | ≤ 100 nM
CN1CCN=C1c1ccc(NC(=O)C2Cc3ccccc3CN2C(=O)Nc2ccc(Cl)cc2)cc1 (stereo not drawn) [Example 1, N-[4-(1-methyl-4,5-dihydro-1H-imidazol-2-yl)phenyl]-2N-(4-chlorophenylaminocarbonyl)-1,2,3,4-tetrahydroisoquinoline-3-carboxamide] | ≤ 100 nM
O=C(Nc1ccc(-c2cccc[n+]2[O-])cc1)C1Cc2ccccc2CN1C(=O)Nc1ccc(Cl)cc1 (stereo not drawn) [Example 2, N-[4-(1N-oxo-pyridin-2-yl)phenyl]-2N-(4-chlorophenylaminocarbonyl)-1,2,3,4-tetrahydroisoquinoline-3-carboxamide] | ≤ 100 nM
N=C(c1ccc(NC(=O)C2Cc3ccccc3CN2C(=O)Nc2ccc(Cl)cc2)cc1)N1CCCC1 (stereo not drawn) [Example 4, N-[4-(pyrrolidinylimino)phenyl]-2N-(4-chlorophenylaminocarbonyl)-1,2,3,4-tetrahydroisoquinoline-3-carboxamide] | ≤ 100 nM
CN(C)C(=N)c1ccc(NC(=O)C2Cc3ccccc3CN2C(=O)Nc2ccc(Cl)cc2)cc1 (stereo not drawn) [Example 5, N-[4-(dimethylaminoimino)phenyl]-2N-(4-chlorophenylaminocarbonyl)-1,2,3,4-tetrahydroisoquinoline-3-carboxamide] | ≤ 100 nM
CN(C)C(=N)c1cccc(CNC(=O)C2Cc3ccccc3CN2C(=O)Nc2ccc(Cl)cc2)c1 (stereo not drawn) [Example 6, N-[3-(dimethylaminoimino)benzyl]-2N-(4-chlorophenylaminocarbonyl)-1,2,3,4-tetrahydroisoquinoline-3-carboxamide] | ≥ 500 nM
CN1CCN=C1c1cccc(CNC(=O)C2Cc3ccccc3CN2C(=O)Nc2ccc(Cl)cc2)c1 (stereo not drawn) [Example 7, N-[3-(1-methyl-4,5-dihydro-1H-imidazol-2-yl)benzyl]-2N-(4-chlorophenylaminocarbonyl)-1,2,3,4-tetrahydroisoquinoline-3-carboxamide] | ≥ 500 nM
O=C(Nc1ccc(C(=O)N2CCCC2)cc1)C1Cc2ccccc2CN1C(=O)Nc1ccc(Cl)cc1 (stereo not drawn) [Example 8, N-[4-(pyrrolidinylcarbonyl)phenyl]-2N-(4-chlorophenylaminocarbonyl)-1,2,3,4-tetrahydroisoquinoline-3-carboxamide] | ≤ 100 nM
O=C(NCC1CCN(c2ccncc2)CC1)C1Cc2ccccc2CN1C(=O)Nc1ccc(Cl)cc1 (stereo not drawn) [Example 9, N-[1-(pyridin-4-yl)piperidin-4-yl]methyl-2N-(4-chlorophenylaminocarbonyl)-1,2,3,4-tetrahydroisoquinoline-3-carboxamide] | 100 to 500 nM
CN1CCCN(c2ccc(NC(=O)C3Cc4ccccc4CN3C(=O)Nc3ccc(Cl)cc3)cc2)CC1 (stereo not drawn) [Example 10, N-[4-(4-methyl-homopiperazinyl)]phenyl-2N-(4-chlorophenylaminocarbonyl)-1,2,3,4-tetrahydroisoquinoline-3-carboxamide] | ≤ 100 nM
CN1CCC(N2CCN(C(=O)C3Cc4ccccc4CN3C(=O)Nc3ccc(Cl)cc3)CC2)CC1 (stereo not drawn) [Example 11, 4-(1-methylpiperidin-4-yl)piperazinyl 2N-(4-chlorophenylaminocarbonyl)-1,2,3,4-tetrahydroisoquinoline-3-carboxamide] | ≤ 100 nM
CC(C)N1CCC(NC(=O)C2Cc3ccccc3CN2C(=O)Nc2ccc(Cl)cc2)CC1 (stereo not drawn) [Example 12, N-(1-isopropylpiperidin-4-yl)2N-(4-chlorophenylaminocarbonyl)-1,2,3,4-tetrahydroisoquinoline-3-carboxamide] | ≥ 500 nM
CN(C)Cc1nccn1-c1ccc(NC(=O)C2Cc3ccccc3CN2C(=O)Nc2ccc(Cl)cc2)c(F)c1 (stereo not drawn) [Example 13, N-[4-(2-dimethylaminomethyl-imidazol-1-yl)-2-fluorophenyl]-2N-(4-chlorophenylaminocarbonyl)-1,2,3,4-tetrahydroisoquinoline-3-carboxamide] | ≤ 100 nM

The next lines start with the values.

IC50 | Structure (SMILES)
≤ 100 nM | O=C(Nc1ccc(N2CCOCC2=O)cc1)C1Cc2ccccc2CN1C(=O)Nc1ccc(Cl)cc1 (stereo not drawn) [Example 14, N-[4-(3-oxo-morpholin-4-yl)phenyl]-2N-(4-chlorophenylaminocarbonyl)-1,2,3,4-tetrahydroisoquinoline-3-carboxamide]
≤ 100 nM | O=C(Nc1ccc(C(=O)N2CCSC2)cc1)C1Cc2ccccc2CN1C(=O)Nc1ccc(Cl)cc1 (stereo not drawn) [Example 15, N-[4-(3-thiazolidinylcarbonyl)phenyl]-2N-(4-chlorophenylaminocarbonyl)-1,2,3,4-tetrahydroisoquinoline-3-carboxamide]
≤ 100 nM | O=C(Nc1ccc(C(=O)N2CCOC2)cc1)C1Cc2ccccc2CN1C(=O)Nc1ccc(Cl)cc1 (stereo not drawn) [Example 16, N-[4-(3-oxazolidinylcarbonyl)phenyl]-2N-(4-chlorophenylaminocarbonyl)-1,2,3,4-tetrahydroisoquinoline-3-carboxamide]
≤ 100 nM | CN(c1ccncc1)c1ccc(NC(=O)C2Cc3ccccc3CN2C(=O)Nc2ccc(Cl)cc2)cc1 (stereo not drawn) [Example 17, N-[4-(N-methyl-N-pyridin-4-yl-amino)phenyl]-2N-(4-chlorophenylaminocarbonyl)-1,2,3,4-tetrahydroisoquinoline-3-carboxamide]
≤ 100 nM | Cc1cccc2c1CC(C(=O)Nc1ccc(C3=NCCN3C)cc1)N(C(=O)Nc1ccc(Cl)cc1)C2 (stereo not drawn) [Example 18, N-[4-(1-methyl-4,5-dihydro-1H-imidazol-2-yl)phenyl]-2N-(4-chlorophenylaminocarbonyl)-5-methyl-1,2,3,4-tetrahydroisoquinoline-3-carboxamide]
≤ 100 nM | Cc1cccc2c1CC(C(=O)Nc1ccc(C(=N)N3CCCC3)cc1)N(C(=O)Nc1ccc(Cl)cc1)C2 (stereo not drawn) [Example 19, N-[4-(pyrrolidinylimino)phenyl]-2N-(4-chlorophenylaminocarbonyl)-5-methyl-1,2,3,4-tetrahydroisoquinoline-3-carboxamide]
≤ 100 nM | Cc1cccc2c1CC(C(=O)Nc1ccc(C(=N)N(C)C)cc1)N(C(=O)Nc1ccc(Cl)cc1)C2 (stereo not drawn) [Example 20, N-[4-(dimethylaminoimino)phenyl]-2N-(4-chlorophenylaminocarbonyl)-5-methyl-1,2,3,4-tetrahydroisoquinoline-3-carboxamide]
≥ 500 nM | COc1cc2c(cc1OC)CN(C(=O)Nc1ccc(Cl)cc1)[C@H](C(=O)Nc1ccc(C3=NCCN3C)cc1)C2 [Example 21, (3S)-N-[4-(1-methyl-4,5-dihydro-1H-imidazol-2-yl)phenyl]-2N-(4-chlorophenylaminocarbonyl)-6,7-dimethoxy-1,2,3,4-tetrahydroisoquinoline-3-carboxamide]
100 to 500 nM | COc1cc2c(cc1OC)CN(C(=O)Nc1ccc(Cl)cc1)[C@H](C(=O)Nc1ccc(C(=N)N3CCCC3)cc1)C2 [Example 22, (3S)-N-[4-(pyrrolidinylimino)phenyl]-2N-(4-chlorophenylaminocarbonyl)-6,7-dimethoxy-1,2,3,4-tetrahydroisoquinoline-3-carboxamide]
≥ 500 nM | COc1cc2c(cc1OC)CN(C(=O)Nc1ccc(Cl)cc1)[C@H](C(=O)Nc1ccc(C(=N)N(C)C)cc1)C2 [Example 23, (3S)-N-[4-(dimethylaminoimino)phenyl]-2N-(4-chlorophenylaminocarbonyl)-6,7-diemthoxy-1,2,3,4-tetrahydroisoquinoline-3-carboxamide]
≤ 100 nM | CN1CCN=C1c1ccc(NC(=O)C2Cc3cc(O)ccc3CN2C(=O)Nc2ccc(Cl)cc2)cc1 (stereo not drawn) [Example 24, N-[4-(1-methyl-4,5-dihydro-1H-imidazol-2-yl)phenyl]-2N-(4-chlorophenylaminocarbonyl)-6-hydroxy-1,2,3,4-tetrahydroisoquinoline-3-carboxamide]
≤ 100 nM | CN1CCN=C1c1ccc(NC(=O)C2Cc3sccc3CN2C(=O)Nc2ccc(Cl)cc2)cc1 (stereo not drawn) [Example 25, N-[4-(1-methyl-4,5-dihydro-1H-imidazol-2-yl)phenyl]-5N-(4-chlorophenylaminocarbonyl)-4,5,6,7-tetrahydro-thieno[3,2-c]pyridine-6-carboxamide]
≤ 100 nM | CN(C)C(=N)c1ccc(NC(=O)C2Cc3sccc3CN2C(=O)Nc2ccc(Cl)cc2)cc1 (stereo not drawn) [Example 26, N-[4-(dimethylaminoimino)phenyl]-5N-(4-chlorophenylaminocarbonyl)-4,5,6,7-tetrahydro-thieno[3,2-c]pyridine-6-carboxamide]
